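Protocol summary: plate cells (96-well), add compound at 5 concentrations, incubate 48 h, interpolate endpoints linearly. At the GI50, growth is halved.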 The source made the active and inactive calls. Cut-off read from the data, not from the text of the source: active = GI50 up to about 1.1 µM and inactive = higher.
How the values were obtained:
Test in all cases: NCI tumour cell line growth inhibition, 48 h
[1] = system: IGROV-1
[2] = system: UO-31
[3] = system: T47D
[4] = system: SF-295
[5] = system: LOX IMVI
[6] = system: DU-145
[7] = system: EKVX
[8] = system: HCC 2998
[9] = system: OVCAR-8
[10] = system: SK-OV-3
[11] = system: OVCAR-3
[12] = system: SNB-75
[13] = system: Malme-3M
[14] = system: RPMI-8226
[15] = system: SR
[16] = system: MDA-MB-231
[17] = system: UACC-257
[18] = system: UACC-62
[19] = system: U-251
[20] = system: MCF7

CCOC(=O)NC(Nc1ccc(OC(F)(F)F)cc1)(C(F)(F)F)C(F)(F)F
GI50 [1]: > 100 µM (inactive) | GI50 [2]: > 100 µM (inactive) | GI50 [3]: > 100 µM (inactive) | GI50 [4]: > 100 µM (inactive) | GI50 [5]: > 100 µM (inactive) | GI50 [6]: > 100 µM (inactive) | GI50 [7]: > 100 µM (inactive) | GI50 [8]: > 100 µM (inactive) | GI50 [9]: > 100 µM (inactive) | GI50 [10]: > 100 µM (inactive) | GI50 [11]: > 100 µM (inactive) | GI50 [12]: > 100 µM (inactive) | GI50 [13]: > 100 µM (inactive) | GI50 [14]: > 100 µM (inactive) | GI50 [15]: > 100 µM (inactive) | GI50 [16]: > 100 µM (inactive) | GI50 [17]: > 100 µM (inactive) | GI50 [18]: > 100 µM (inactive) | GI50 [19]: > 100 µM (inactive) | GI50 [20]: > 100 µM (inactive)

COc1ccc(-c2cc(-c3ccccc3)n(C3OCC(OC(C)=O)C(OC(C)=O)C3OC(C)=O)c(=S)c2C#N)cc1 (stereo not given)
GI50 [1]: > 100 µM (inactive) | GI50 [2]: 28.6 µM (inactive) | GI50 [3]: 78.7 µM (inactive) | GI50 [4]: 56.4 µM (inactive) | GI50 [5]: > 100 µM (inactive) | GI50 [6]: > 100 µM (inactive) | GI50 [7]: > 100 µM (inactive) | GI50 [8]: > 100 µM (inactive) | GI50 [9]: > 100 µM (inactive) | GI50 [10]: 66.1 µM (inactive) | GI50 [11]: > 100 µM (inactive) | GI50 [12]: > 100 µM (inactive) | GI50 [13]: > 100 µM (inactive) | GI50 [14]: > 100 µM (inactive) | GI50 [15]: > 100 µM (inactive) | GI50 [16]: > 100 µM (inactive) | GI50 [17]: > 100 µM (inactive) | GI50 [18]: 53 µM (inactive) | GI50 [19]: > 100 µM (inactive) | GI50 [20]: > 100 µM (inactive)

O=C1C(Cl)=CC2(C=C1Cl)CCNC1=C2C(=O)c2nc[nH]c2C1=O
GI50 [1]: 47.1 µM (inactive) | GI50 [2]: > 100 µM (inactive) | GI50 [3]: 99.8 µM (inactive) | GI50 [4]: > 100 µM (inactive) | GI50 [5]: 20 µM (inactive) | GI50 [6]: > 100 µM (inactive) | GI50 [7]: 51.8 µM (inactive) | GI50 [8]: 39.4 µM (inactive) | GI50 [9]: 32.9 µM (inactive) | GI50 [10]: > 100 µM (inactive) | GI50 [11]: 32.3 µM (inactive) | GI50 [12]: 97.5 µM (inactive) | GI50 [13]: 24.3 µM (inactive) | GI50 [14]: 30.5 µM (inactive) | GI50 [15]: 2.12 µM (inactive) | GI50 [16]: 35.6 µM (inactive) | GI50 [17]: 18.6 µM (inactive) | GI50 [18]: 18.3 µM (inactive) | GI50 [19]: 26.5 µM (inactive) | GI50 [20]: 22.3 µM (inactive)

O=C1C(=C(I)I)c2ccccc2-c2ccccc21
GI50 [1]: 6.07 µM (inactive) | GI50 [2]: 2.1 µM (inactive) | GI50 [3]: 2.3 µM (inactive) | GI50 [4]: 16.6 µM (inactive) | GI50 [5]: 2.08 µM (inactive) | GI50 [6]: 3.67 µM (inactive) | GI50 [7]: 3 µM (inactive) | GI50 [8]: 2.51 µM (inactive) | GI50 [9]: 2.59 µM (inactive) | GI50 [10]: 14.8 µM (inactive) | GI50 [11]: 1.74 µM (inactive) | GI50 [12]: 2.58 µM (inactive) | GI50 [13]: 1.64 µM (inactive) | GI50 [14]: 0.53 µM (active) | GI50 [15]: 2.33 µM (inactive) | GI50 [16]: 2.03 µM (inactive) | GI50 [17]: 2.1 µM (inactive) | GI50 [18]: 4.52 µM (inactive) | GI50 [19]: 5.45 µM (inactive) | GI50 [20]: 3.59 µM (inactive)

COC(=O)C(C)(/N=C/c1ccccc1)c1ccccc1 (stereo not given)
GI50 [1]: > 100 µM (inactive) | GI50 [2]: > 100 µM (inactive) | GI50 [3]: > 100 µM (inactive) | GI50 [4]: > 100 µM (inactive) | GI50 [5]: > 100 µM (inactive) | GI50 [6]: > 100 µM (inactive) | GI50 [7]: > 100 µM (inactive) | GI50 [8]: > 100 µM (inactive) | GI50 [9]: > 100 µM (inactive) | GI50 [10]: > 100 µM (inactive) | GI50 [11]: > 100 µM (inactive) | GI50 [12]: > 100 µM (inactive) | GI50 [13]: > 100 µM (inactive) | GI50 [14]: > 100 µM (inactive) | GI50 [15]: > 100 µM (inactive) | GI50 [16]: > 100 µM (inactive) | GI50 [17]: > 100 µM (inactive) | GI50 [18]: > 100 µM (inactive) | GI50 [19]: > 100 µM (inactive) | GI50 [20]: > 100 µM (inactive)

CCCCn1c(C)c2c(c1C)C(=O)N(CCN1CCN(c3ccccc3Cl)CC1)C2=O
GI50 [1]: 30.9 µM (inactive) | GI50 [2]: 17.6 µM (inactive) | GI50 [3]: 22.5 µM (inactive) | GI50 [4]: 23.1 µM (inactive) | GI50 [5]: 16.5 µM (inactive) | GI50 [6]: 36 µM (inactive) | GI50 [7]: 35.6 µM (inactive) | GI50 [8]: 30.6 µM (inactive) | GI50 [9]: 44.9 µM (inactive) | GI50 [10]: 21.6 µM (inactive) | GI50 [11]: 50.7 µM (inactive) | GI50 [12]: 31.6 µM (inactive) | GI50 [13]: 21 µM (inactive) | GI50 [14]: 24.7 µM (inactive) | GI50 [15]: 26.4 µM (inactive) | GI50 [16]: 51.2 µM (inactive) | GI50 [17]: 28.6 µM (inactive) | GI50 [18]: 32.4 µM (inactive) | GI50 [19]: 36.5 µM (inactive) | GI50 [20]: 32.4 µM (inactive)

Reference: ChEMBL document CHEMBL1201862, “PubChem BioAssay data set” (2004)
